Where a chain is given by its changes, count along the chain named.
Legend:
M1 mAChR = target: T1, M1 mAChR (Mus musculus, UniProt P12657); assay: IP1 accumulation assay in mouse primary cortical neurons; type: cell-based; conditions: for log τB (logarithm of the operational efficacy estimate) / τB (antilogarithm of the operational efficacy parameter): IP1 accumulation
T1 sequence (P12657 1-460): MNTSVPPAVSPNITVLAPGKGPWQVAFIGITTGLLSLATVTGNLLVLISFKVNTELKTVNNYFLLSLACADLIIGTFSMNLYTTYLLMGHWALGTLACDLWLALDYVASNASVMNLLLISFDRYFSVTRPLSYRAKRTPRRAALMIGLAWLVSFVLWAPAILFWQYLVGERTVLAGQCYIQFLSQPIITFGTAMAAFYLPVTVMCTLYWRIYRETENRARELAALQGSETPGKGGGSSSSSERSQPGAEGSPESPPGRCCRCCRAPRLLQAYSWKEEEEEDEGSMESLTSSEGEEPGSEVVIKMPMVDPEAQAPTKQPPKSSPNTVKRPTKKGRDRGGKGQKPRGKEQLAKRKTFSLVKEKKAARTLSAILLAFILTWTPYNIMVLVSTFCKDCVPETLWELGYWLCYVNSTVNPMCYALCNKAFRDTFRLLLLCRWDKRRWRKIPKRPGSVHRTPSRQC

hM1 mAChR [1] = target: T2, hM1 mAChR (Homo sapiens, UniProt P11229); assay: Radioligand equilibrium binding assay
T2 sequence (P11229 1-460): T1 sequence (P12657 1-460) with V5A, S254T, K320R, G337A, V413I

hM1 mAChR [2] = target: T2, hM1 mAChR; assay: IP1 accumulation assay in FlpInCHO-hM1; type: cell-based; conditions: for cluster of two-point profile (change in baseline versus change in pEC50): 1 and 10 μM modulator, compared with BQCA, CHO-M1 cells; for log τB (logarithm of the operational efficacy parameter of the allosteric modulator): operational model of allosterism (eq 2); for log τB (logarithm of the operational efficacy parameter of the allosteric modulator) / log αβ (logarithm of the functional cooperativity estimate between ACh and allosteric modulator): pKB fixed to binding value; for log αβ (logarithm of the functional cooperativity estimate between ACh and allosteric modulator): operational model of allosterism
[3] = mouse cortical neurons, ACh-mediated IP1 accumulation
[4] = 3H-NMS 0.5 nM, allosteric ternary complex model

log α (logarithm of the binding cooperativity between ACh and allosteric modulator) (hM1 mAChR [1]; [4])	Kb (hM1 mAChR [1]) [µM]	cluster of two-point profile (change in baseline versus change in pEC50) (hM1 mAChR [2])	log τB (logarithm of the operational efficacy parameter of the allosteric modulator) (hM1 mAChR [2])	log αβ (logarithm of the functional cooperativity estimate between ACh and allosteric modulator) (hM1 mAChR [2])	also measured	SMILES
1.26 ± 0.13					log αβ (logarithm of the functional cooperativity estimate) (M1 mAChR; [3]): 1.73 ± 0.34; pKB (negative logarithm of the functional binding affinity estimate for the allosteric modulator) (M1 mAChR; [3]): 4.69 ± 0.40; αβ (antilogarithm of the functional cooperativity parameter) (M1 mAChR; [3]): (54)	COc1ccc(Cn2cc(C(=O)O)c(=O)c3ccccc32)cc1 [BQCA, reference compound]
1.07 ± 0.19	0.324	cluster 2	0.45 ± 0.08	0.79 ± 0.38	Kb (M1 mAChR): 9.55 µM; log αβ (logarithm of the functional cooperativity estimate) (M1 mAChR; [3]): 2.12 ± 0.18; αβ (antilogarithm of the functional cooperativity parameter) (M1 mAChR; [3]): (132); log τB (logarithm of the operational efficacy estimate) (M1 mAChR; mouse cortical neurons): 0.47 ± 0.13; τB (antilogarithm of the operational efficacy parameter) (M1 mAChR; mouse cortical neurons): (2.95)	Cn1cc(-c2ccc(COc3ccccc3-c3cc(=O)n(C4CCCCC4O)cn3)cc2)cn1 (centres unmarked) [Compound 2, 3-(2-Hydroxycyclohexyl)-6-(2-((4-(1-methyl-1H-pyrazol-4-yl)-benzyl)oxy)phenyl)pyrimidin-4(3H)-one]
1.30 ± 0.16	5.5		0.37 ± 0.05	1.24 ± 0.18	Kb (M1 mAChR): 3.24 µM; log αβ (logarithm of the functional cooperativity estimate) (M1 mAChR; [3]): 0.98 ± 0.11; αβ (antilogarithm of the functional cooperativity parameter) (M1 mAChR; [3]): (9.5); log τB (logarithm of the operational efficacy estimate) (M1 mAChR; mouse cortical neurons): −0.52 ± 0.09; τB (antilogarithm of the operational efficacy parameter) (M1 mAChR; mouse cortical neurons): (0.30)	Cc1ccc(COc2ccccc2-c2cc(=O)n(C3CCCCC3O)cn2)cn1 (centres unmarked) [Compound 9i, 3-(2-Hydroxycyclohexyl)-6-(2-((6-methylpyridin-3-yl)methoxy)-phenyl)pyrimidin-4(3H)-one]
		cluster 2				NS(=O)(=O)c1ccc(COc2ccccc2-c2cc(=O)n(C3CCCCC3O)cn2)cc1 (centres unmarked) [Compound 9k, 4-((2-(1-(2-Hydroxycyclohexyl)-6-oxo-1,6-dihydropyrimidin-4-yl)phenoxy)methyl) benzenesulfonamide]
		cluster 3				CN(C)S(=O)(=O)c1ccc(COc2ccccc2-c2cc(=O)n(C3CCCCC3O)cn2)cc1 (centres unmarked) [Compound 9l, 4-((2-(1-(2-Hydroxycyclohexyl)-6-oxo-1,6-dihydropyrimidin-4-yl)phenoxy)methyl)-N,N-dimethylbenzenesulfonamide]
		cluster 2				O=c1cc(-c2ccccc2OCc2ccc(-c3cn[nH]c3)cc2)ncn1C1CCCCC1O (centres unmarked) [Compound 10, 6-(2-((4-(1H-Pyrazol-4-yl)benzyl)oxy)phenyl)-3-(2-hydroxycyclohexyl)pyrimidin-4(3H)-one]
1.14 ± 0.13	2.95	cluster 1	0.34 ± 0.05	1.30 ± 0.14		O=c1cc(-c2ccccc2OCc2ccccc2)ncn1C1CCCCC1O (centres unmarked) [Compound 13, 6-(2-(Benzyloxy)phenyl)-3-(2-hydroxycyclohexyl)pyrimidin-4(3H)-one]
		cluster 1				O=C(O)c1ccc(COc2ccccc2-c2cc(=O)n(C3CCCCC3O)cn2)cc1 (centres unmarked) [Compound 14a, 4-((2-(1-(2-Hydroxycyclohexyl)-6-oxo-1,6-dihydropyrimidin-4-yl)phenoxy)methyl)benzoic acid]
1.11 ± 0.09		cluster 2	0.61 ± 0.06	1.14 ± 0.26	pKB (negative logarithm of the binding affinity estimate of the allosteric modulator) (hM1 mAChR [1]; [4]): 6.72 ± 0.03	NC(=O)c1ccc(COc2ccccc2-c2cc(=O)n(C3CCCCC3O)cn2)cc1 (centres unmarked) [Compound 14b, 4-((2-(1-(2-Hydroxycyclohexyl)-6-oxo-1,6-dihydropyrimidin-4-yl)phenoxy)methyl) benzamide]
		cluster 3				CN(C)C(=O)c1ccc(COc2ccccc2-c2cc(=O)n(C3CCCCC3O)cn2)cc1 (centres unmarked) [Compound 15a, 4-((2-(1-(2-Hydroxycyclohexyl)-6-oxo-1,6-dihydropyrimidin-4-yl)phenoxy)methyl)-N,N-dimethylbenzamide]
		cluster 4				CNC(=O)c1ccc(COc2ccccc2-c2cc(=O)n(C3CCCCC3O)cn2)cc1 (centres unmarked) [Compound 15b, 4-((2-(1-(2-Hydroxycyclohexyl)-6-oxo-1,6-dihydropyrimidin-4-yl)phenoxy)methyl)-N-methylbenzamide]
0.81 ± 0.12	16.2	cluster 3	−0.09 ± 0.06	0.85 ± 0.16		CCN(CC)C(=O)c1ccc(COc2ccccc2-c2cc(=O)n(C3CCCCC3O)cn2)cc1 (centres unmarked) [Compound 15c, N,N-Diethyl-4-((2-(1-(2-hydroxycyclohexyl)-6-oxo-1,6-dihydropyrimidin-4-yl)phenoxy)methyl)benzamide]
1.27 ± 0.13	0.269	cluster 4	0.79 ± 0.04	1.05 ± 0.20		CCNC(=O)c1ccc(COc2ccccc2-c2cc(=O)n(C3CCCCC3O)cn2)cc1 (centres unmarked) [Compound 15d, N-Ethyl-4-((2-(1-(2-hydroxycyclohexyl)-6-oxo-1,6-dihydropyrimidin-4-yl)phenoxy)methyl)benzamide]
		cluster 3				O=C(c1ccc(COc2ccccc2-c2cc(=O)n(C3CCCCC3O)cn2)cc1)N1CCCCC1 (centres unmarked) [Compound 15e, 3-(2-Hydroxycyclohexyl)-6-(2-((4-(piperidine-1-carbonyl)benzyl)-oxy)phenyl)pyrimidin-4(3H)-one]

From PMC7616175 (ACS chemical neuroscience, 2018)
